Test results published in patent US20230023009A1, “HETEROCYCLIC COMPOUNDS AND METHODS OF USE THEREOF” (SPARCBIO LLC, priority 2020, published 2023).

What was measured:
KRAS G12C protein = KRAS G12C protein (Homo sapiens, UniProt P01116, G12C); experiment: Nucleotide exchange assay (Method III, KRAS G12C/Raf-RBD TR-FRET); assay type: biochemical; conditions: SOS1-mediated exchange of GDP for GTP, 18 hr compound incubation
How it was run: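 His-tagged GDP-bound KRAS G12C (25 nM in 2× mix) was preincubated with an 11-point, 3-fold compound series for 18 hr at 23° C, then SOS1/GTP was added for 1 hr. FLAG-Raf-RBD with Tb-anti-FLAG/D2-anti-His followed for 2 hr at room temperature. TR-FRET was read, and IC50 was obtained by non-linear regression.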

NCI-H358 cells = experiment: 3D cell proliferation assay (Cell Titer-Glo 3D, 7 days); assay type: cell-based; conditions: Homo sapiens, NCI-H358, 168 h, NCI-H358 3D, ultra-low attachment plate
Procedure: NCI-H358 cells (ATCC® CRL-5807™) were plated in a 384-well Black/Clear Round Bottom Ultra-Low Attachment Microplate (Corning) in medium (RPMI-1640+10% FBS) at a density of 1000 cells in 50 μL per well, then incubated overnight at 37° C. and 5% CO2. Cells were treated with test compounds at 9 concentrations within a specified concentration range (e.g., 0.5 nM-10 μM) for generation of dose response curves. Test compounds were prepared by 1:3 serial dilution in DMSO from a specified starting concentration (e.g., 20 μM, 2 μM or 0.2 μM) and then added to wells of the assay plate in a total volume of 150 nL DMSO. The cells were further incubated at 37° C. and 5% CO2 for 7 days. Cell viability was assessed by adding 40 μL of Cell Titer-Glo® 3D reagent (Cat. No.: G9683, Promega) to each well and reading luminescence after mixing and incubation of the samples. The IC50 value of each test compound was calculated with XLFit curve fitting software.

Sequence of KRAS G12C protein (P01116 1-188 isoform P01116-2 G12C): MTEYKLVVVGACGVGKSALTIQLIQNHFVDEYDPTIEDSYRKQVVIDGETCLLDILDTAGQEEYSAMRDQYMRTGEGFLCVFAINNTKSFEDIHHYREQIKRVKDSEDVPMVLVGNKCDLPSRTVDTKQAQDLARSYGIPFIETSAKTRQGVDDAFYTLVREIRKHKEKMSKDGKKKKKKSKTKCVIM

## C=C(F)C(=O)N1CCN(c2nc(OC[C@@H]3CCCN3C)nc3c2CO[C@@H](c2cccc4cccc(Cl)c24)C3)C[C@@H]1CC#N (single isomer, unassigned) [43 (Isomer B)]
KRAS G12C protein
  IC50: ≤ 300 nM
NCI-H358 cells
  IC50: ≤ 100 nM
